In PubChem BioAssay (NCI):
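Values below derive from 48-hour exposures of cells grown in 96-well plates, with endpoints linearly interpolated between the two concentrations bracketing the appropriate inhibition level. TGI is the concentration that stops growth completely.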

Key:
Test in all cases: growth of human tumour cells (NCI), 48 h
SK-MEL-5 melanoma = test system: SK-MEL-5 melanoma
EKVX NSCLC = test system: EKVX NSCLC
UACC-62 melanoma = test system: UACC-62 melanoma
OVCAR-8 ovarian = test system: OVCAR-8 ovarian
M14 melanoma = test system: M14 melanoma
BT-549 breast = test system: BT-549 breast
HT29 colon = test system: HT29 colon
HOP-62 NSCLC = test system: HOP-62 NSCLC
SNB-75 CNS = test system: SNB-75 CNS
DU-145 prostate = test system: DU-145 prostate
HCC-2998 colon = test system: HCC-2998 colon
A549 NSCLC = test system: A549 NSCLC
OVCAR-5 ovarian = test system: OVCAR-5 ovarian
COLO 205 colon = test system: COLO 205 colon
MDA-MB-435 = test system: MDA-MB-435
T-47D breast = test system: T-47D breast
U251 CNS = test system: U251 CNS
SK-MEL-28 melanoma = test system: SK-MEL-28 melanoma
SK-OV-3 ovarian = test system: SK-OV-3 ovarian
ACHN renal = test system: ACHN renal
K-562 leukemia = test system: K-562 leukemia
HOP-92 NSCLC = test system: HOP-92 NSCLC
SF-268 CNS = test system: SF-268 CNS
NCI-H522 lung = test system: NCI-H522 lung
MALME-3M melanoma = test system: MALME-3M melanoma
HS 578T breast = test system: HS 578T breast
HL-60(TB) leukemia = test system: HL-60(TB) leukemia
RPMI-8226 leukemia = test system: RPMI-8226 leukemia
NCI-H23 lung = test system: NCI-H23 lung
786-0 renal = test system: 786-0 renal
OVCAR-4 ovarian = test system: OVCAR-4 ovarian
A498 renal = test system: A498 renal
NCI/ADR-RES ovarian = test system: NCI/ADR-RES ovarian
MDA-N = test system: MDA-N
HCT-116 colon = test system: HCT-116 colon
SK-MEL-2 melanoma = test system: SK-MEL-2 melanoma
RXF 393 renal = test system: RXF 393 renal
HCT-15 colon = test system: HCT-15 colon
SF-295 CNS = test system: SF-295 CNS
MOLT-4 leukemia = test system: MOLT-4 leukemia
IGROV1 ovarian = test system: IGROV1 ovarian
SNB-19 CNS = test system: SNB-19 CNS
OVCAR-3 ovarian = test system: OVCAR-3 ovarian
CCRF-CEM leukemia = test system: CCRF-CEM leukemia
MDA-MB-231 breast = test system: MDA-MB-231 breast
CAKI-1 renal = test system: CAKI-1 renal
LOX IMVI melanoma = test system: LOX IMVI melanoma
PC-3 prostate = test system: PC-3 prostate
NCI-H226 lung = test system: NCI-H226 lung
KM12 colon = test system: KM12 colon
UO-31 renal = test system: UO-31 renal
MCF7 breast = test system: MCF7 breast
SF-539 CNS = test system: SF-539 CNS
NCI-H460 lung = test system: NCI-H460 lung
UACC-257 melanoma = test system: UACC-257 melanoma
TK-10 renal = test system: TK-10 renal
SR leukemia = test system: SR leukemia
SW-620 colon = test system: SW-620 colon
SN12C renal = test system: SN12C renal
SNB-78 CNS = test system: SNB-78 CNS
DMS 273 small cell lung = test system: DMS 273 small cell lung
DMS 114 small cell lung = test system: DMS 114 small cell lung
LXFL 529 NSCLC = test system: LXFL 529 NSCLC
XF 498 CNS = test system: XF 498 CNS
M19-MEL melanoma = test system: M19-MEL melanoma
DLD-1 colon = test system: DLD-1 colon
KM20L2 colon = test system: KM20L2 colon

CCCCCC(O)(CCCCC)CCCCCCCCC1=C(O)c2ccccc2C(=O)C1=O
TGI (SK-MEL-5 melanoma): 14.5 µM
TGI (EKVX NSCLC): 60.1 µM
TGI (UACC-62 melanoma): 21.1 µM
TGI (OVCAR-8 ovarian): 33 µM
TGI (M14 melanoma): 24.8 µM
TGI (BT-549 breast): 39.6 µM
TGI (HT29 colon): 27.9 µM
TGI (HOP-62 NSCLC): 25.6 µM
TGI (SNB-75 CNS): > 80.2 µM
TGI (DU-145 prostate): 25.7 µM
TGI (HCC-2998 colon): 30.5 µM
TGI (A549 NSCLC): > 53.6 µM
TGI (OVCAR-5 ovarian): 46.1 µM
TGI (COLO 205 colon): 42.4 µM
TGI (MDA-MB-435): > 62.4 µM
TGI (T-47D breast): 75.2 µM
TGI (U251 CNS): 14.5 µM
TGI (SK-MEL-28 melanoma): > 46.2 µM
TGI (SK-OV-3 ovarian): > 64.1 µM
TGI (ACHN renal): > 100 µM
TGI (K-562 leukemia): 21.6 µM
TGI (HOP-92 NSCLC): 33.6 µM
TGI (SF-268 CNS): 33.7 µM
TGI (NCI-H522 lung): 67.9 µM
TGI (MALME-3M melanoma): 28.6 µM
TGI (HS 578T breast): 54.5 µM
TGI (HL-60(TB) leukemia): 14 µM
TGI (RPMI-8226 leukemia): 11.5 µM
TGI (NCI-H23 lung): 21.9 µM
TGI (786-0 renal): 30.5 µM
TGI (OVCAR-4 ovarian): > 48.8 µM
TGI (A498 renal): 21.5 µM
TGI (NCI/ADR-RES ovarian): 21.8 µM
TGI (MDA-N): 31.3 µM
TGI (HCT-116 colon): 15.2 µM
TGI (SK-MEL-2 melanoma): 27.7 µM
TGI (RXF 393 renal): 29.9 µM
TGI (HCT-15 colon): 15.6 µM
TGI (SF-295 CNS): 40.5 µM
TGI (MOLT-4 leukemia): 12.4 µM
TGI (IGROV1 ovarian): 26.4 µM
TGI (SNB-19 CNS): 24.9 µM
TGI (OVCAR-3 ovarian): 29.4 µM
TGI (CCRF-CEM leukemia): > 100 µM
TGI (MDA-MB-231 breast): 32 µM
TGI (CAKI-1 renal): > 56.1 µM
TGI (LOX IMVI melanoma): 18 µM
TGI (PC-3 prostate): 24.6 µM
TGI (NCI-H226 lung): 36.4 µM
TGI (KM12 colon): 19.4 µM
TGI (UO-31 renal): 28 µM
TGI (MCF7 breast): 23.6 µM
TGI (SF-539 CNS): 27.5 µM
TGI (NCI-H460 lung): 17.7 µM
TGI (UACC-257 melanoma): > 66.5 µM
TGI (TK-10 renal): > 75.5 µM
TGI (SR leukemia): 13.9 µM
TGI (SW-620 colon): 32 µM
TGI (SN12C renal): 23.5 µM

COc1cc([C@H]2c3cc4c(cc3[C@H](NCc3ccc([N+](=O)[O-])cc3)C3COC(=O)[C@H]32)OCO4)cc(OC)c1O (stereo partly drawn)
TGI (SK-MEL-5 melanoma): 6.61 µM
TGI (EKVX NSCLC): > 23.6 µM
TGI (UACC-62 melanoma): 12.1 µM
TGI (OVCAR-8 ovarian): 7.62 µM
TGI (M14 melanoma): 10.4 µM
TGI (SNB-78 CNS): > 100 µM
TGI (HT29 colon): 14.6 µM
TGI (HOP-62 NSCLC): 0.784 µM
TGI (SNB-75 CNS): 6.6 µM
TGI (DMS 273 small cell lung): > 100 µM
TGI (HCC-2998 colon): 3.98 µM
TGI (DMS 114 small cell lung): > 25.3 µM
TGI (A549 NSCLC): 2.23 µM
TGI (OVCAR-5 ovarian): > 26 µM
TGI (COLO 205 colon): > 43.9 µM
TGI (U251 CNS): 3.26 µM
TGI (SK-MEL-28 melanoma): > 100 µM
TGI (SK-OV-3 ovarian): > 24.6 µM
TGI (ACHN renal): 2.32 µM
TGI (K-562 leukemia): > 100 µM
TGI (HOP-92 NSCLC): > 100 µM
TGI (SF-268 CNS): > 25.9 µM
TGI (MALME-3M melanoma): 17.3 µM
TGI (RPMI-8226 leukemia): > 25.6 µM
TGI (NCI-H23 lung): 1.91 µM
TGI (786-0 renal): 2.78 µM
TGI (OVCAR-4 ovarian): > 100 µM
TGI (A498 renal): 2.67 µM
TGI (LXFL 529 NSCLC): > 76 µM
TGI (HCT-116 colon): > 86.1 µM
TGI (SK-MEL-2 melanoma): 34.9 µM
TGI (RXF 393 renal): > 64.6 µM
TGI (HCT-15 colon): 6.44 µM
TGI (SF-295 CNS): 5.14 µM
TGI (MOLT-4 leukemia): > 100 µM
TGI (XF 498 CNS): 20.4 µM
TGI (M19-MEL melanoma): > 100 µM
TGI (DLD-1 colon): > 43.5 µM
TGI (IGROV1 ovarian): > 61.3 µM
TGI (KM20L2 colon): 14.4 µM
TGI (SNB-19 CNS): 21.4 µM
TGI (OVCAR-3 ovarian): 40 µM
TGI (CCRF-CEM leukemia): > 100 µM
TGI (CAKI-1 renal): 4.58 µM
TGI (LOX IMVI melanoma): 9.81 µM
TGI (NCI-H226 lung): 1.68 µM
TGI (KM12 colon): 11.4 µM
TGI (UO-31 renal): 5.75 µM
TGI (SF-539 CNS): 2.95 µM
TGI (NCI-H460 lung): 2.18 µM
TGI (UACC-257 melanoma): > 81.8 µM
TGI (TK-10 renal): 7.08 µM
TGI (SW-620 colon): > 38.3 µM
TGI (SN12C renal): 4.68 µM
